Results as given in patent publication US7968752B2, “Hydrolytically-resistant boron-containing therapeutics and methods of use” (Anacor Pharmaceuticals, Inc., priority 2003, dated 2011).
≈ marks a conversion by molar mass, not a printed value.

What was measured:
S. faecalis ATCC 29212 = experiment: MIC determination (NCCLS broth microdilution); format: cell-based; conditions: 24 hours at 34° C., lowest concentration with >=80% inhibition; for MIC: Enterococcus faecalis, ATCC29212
S. aureus ATCC 29213 = experiment: MIC determination (NCCLS broth microdilution); format: cell-based; conditions: 24 hours at 34° C., lowest concentration with >=80% inhibition; for MIC: Staphylococcus aureus, ATCC29213
S. faecium CT-26 = experiment: MIC determination (NCCLS broth microdilution); format: cell-based; conditions: 24 hours at 34° C., lowest concentration with >=80% inhibition; for MIC: Enterococcus faecium, CT26
S. pneumoniae ATCC 6301 = experiment: MIC determination (NCCLS broth microdilution); format: cell-based; conditions: 24 hours at 34° C., lowest concentration with >=80% inhibition; for MIC: Streptococcus pneumoniae, ATCC6301
[1] = test system: S. epidermidis ATCC 12228; experiment: MIC determination (NCCLS broth microdilution); format: cell-based; conditions: 24 hours at 34° C., lowest concentration with >=80% inhibition; for MIC: Staphylococcus epidermidis, ATCC12228
in vitro = conditions: human
[2] = Cytotoxicity in HCV RNA replicon assay; conditions: human, ET cell line (luc-ubi-neo/ET)
17D strain YFV virus = experiment: microbe, parasite or virus in culture; format: cell-based, Yellow Fever (YFV); conditions: Yellow fever virus, HeLa, 168 h, read-out: Anti-Yellow Fever Activity IC50
[3] = Cell viability (CellTiter 96) in HepG2 2.15 assay; format: cell-based; conditions: human, HepG2 2.2.15 cells (produce HBV ayw1 strain); read-out: Anti-Hepatitis B Activity TC50
Description: (§1) HepG2 2.15 Antiviral Evaluation Assay—HepG2 2.2.15 cells, which produce HBV ayw1 strain, were plated in 96-well collagencoated microtiter plates at a density of 2.5×10^4/well with DMEM medium supplemented with 2% fetal bovine serum. One day following plating of cells, the wells were washed and the medium was replaced with complete medium containing the test compound diluted in the medium in a half-log series.
(§2) The medium was replaced once with the fresh medium containing the freshly diluted compound three days post the initial addition of the lamivudine, a positive control compound. Cell viability was determined using CellTiter 96® Reagent (Promega, Madison, Wis.) according to the manufacturer's protocol, using a Vmax plate reader (Molecular Devices, Sunnyvale, Calif.). The mixture is metabolized by the mitochondrial enzymes of metabolically active cells to a soluble formazan product, allowing the rapid quantitative analysis of cell numbers. The media was removed and replaced with 100 μl of fresh media and 10 μl of Cell Titer 96. […] Percent cell viability of compound treated wells compared to no compound controls was calculated using an in-house computer program which graphs the percent reduction in viral cytopathic effects and the cell numbers at each drug concentration relative to control values.

HBV ayw1 strain = experiment: HepG2 2.15 Antiviral Evaluation Assay; format: cell-based; conditions: Hepatitis B virus; HepG2 2.2.15 cells; read-out: Anti-Hepatitis B Activity IC50
Description: as §1, §2

## CC1(C)OB(c2cccc(Cl)c2)c2ccccc21 [Compound 16, 1-(3-Chlorophenyl)-1,3-dihydro-3,3-dimethylbenzo[c][1,2]oxaborole]
S. faecalis ATCC 29212
  MIC: 16 µg/mL (≈ 62.4 µM)
S. aureus ATCC 29213
  MIC: 0.5 µg/mL (≈ 1.95 µM)
S. faecium CT-26
  MIC: 16 µg/mL (≈ 62.4 µM)
S. pneumoniae ATCC 6301
  MIC: 8 µg/mL (≈ 31.2 µM)
[1]
  MIC: 2 µg/mL (≈ 7.8 µM)

## N#Cc1cccc(B2OCc3ccccc32)c1 [Compound 14, 3-(Benzo[c][1,2]oxaborol-1(3H)-yl)benzonitrile]
In vitro
  CC50 at 7 day: 6.53 µM
S. faecalis ATCC 29212
  MIC: 32 µg/mL (≈ 146 µM)
[2]
  CC50 at 72 hr: 1.14 µM
17D strain YFV virus
  IC50: 0.44 µM
S. aureus ATCC 29213
  MIC: 0.25 µg/mL (≈ 1.14 µM)
S. faecium CT-26
  MIC: 16 µg/mL (≈ 73 µM)
S. pneumoniae ATCC 6301
  MIC: 2 µg/mL (≈ 9.13 µM)
[1]
  MIC: 2 µg/mL (≈ 9.13 µM)

## NCc1cccc(B2OCc3cc(F)ccc32)c1 [Compound 24]
S. faecalis ATCC 29212
  MIC: 32 µg/mL (≈ 133 µM)
S. aureus ATCC 29213
  MIC: 4 µg/mL (≈ 16.6 µM)
S. faecium CT-26
  MIC: 32 µg/mL (≈ 133 µM)
S. pneumoniae ATCC 6301
  MIC: 16 µg/mL (≈ 66.4 µM)
[1]
  MIC: 8 µg/mL (≈ 33.2 µM)

## Clc1cccc(B2OCc3ccccc32)c1 [Compound 12, 1-(3-Chlorophenyl)-1,3-dihydrobenzo[c][1,2]oxaborole]
S. faecalis ATCC 29212
  MIC: 16 µg/mL (≈ 70 µM)
[2]
  CC50 at 72 hr: 12.7 µM
S. aureus ATCC 29213
  MIC: 0.5 µg/mL (≈ 2.19 µM)
S. faecium CT-26
  MIC: 16 µg/mL (≈ 70 µM)
S. pneumoniae ATCC 6301
  MIC: 8 µg/mL (≈ 35 µM)
[1]
  MIC: 2 µg/mL (≈ 8.75 µM)

## Fc1cccc(B2OCc3cc(Cl)ccc32)c1 [Compound 13, 5-Chloro-1-(3-Fluorophenyl)-1,3-dihydrobenzo[c][1,2]oxaborole]
In vitro
  CC50 at 7 day: 6.22 µM
S. faecalis ATCC 29212
  MIC: 16 µg/mL (≈ 64.9 µM)
[2]
  CC50 at 72 hr: 0.37 µM
17D strain YFV virus
  IC50: 1.39 µM
S. aureus ATCC 29213
  MIC: < 0.125 µg/mL
S. faecium CT-26
  MIC: 8 µg/mL (≈ 32.5 µM)
S. pneumoniae ATCC 6301
  MIC: 4 µg/mL (≈ 16.2 µM)
[1]
  MIC: 0.25 µg/mL (≈ 1.01 µM)

## CC[C@H]1OC(=O)[C@H](C)[C@@H](O[C@H]2C[C@@](C)(OC)[C@@H](O)[C@H](C)O2)[C@H](C)[C@@H](O[C@@H]2O[C@H](C)C[C@H](N(C)C)[C@H]2O)[C@](C)(O)C[C@@H](C)C(=O)[C@H](C)[C@@H](O)[C@]1(C)O [Erythromycin, reference compound]
S. faecalis ATCC 29212
  MIC: 2 µg/mL (≈ 2.73 µM)
S. aureus ATCC 29213
  MIC: 0.5 µg/mL (≈ 0.681 µM)
[1]
  MIC: 0.5 µg/mL (≈ 0.681 µM)

## N#Cc1ccc(B2OCc3ccccc32)cc1 [Compound 18, 4-(Benzo[c][1,2]oxaborol-1(3H)-yl)benzonitrile]
In vitro
  CC50 at 7 day: 6.6 µM
S. faecalis ATCC 29212
  MIC: 32 µg/mL (≈ 146 µM)
17D strain YFV virus
  IC50: 0.74 µM
S. aureus ATCC 29213
  MIC: 2 µg/mL (≈ 9.13 µM)
S. faecium CT-26
  MIC: 32 µg/mL (≈ 146 µM)
S. pneumoniae ATCC 6301
  MIC: 4 µg/mL (≈ 18.3 µM)
[1]
  MIC: 2 µg/mL (≈ 9.13 µM)

## NCc1ccc(B2OCc3cc(F)ccc32)cc1 [Compound 23]
S. faecalis ATCC 29212
  MIC: 16 µg/mL (≈ 66.4 µM)
S. aureus ATCC 29213
  MIC: 2 µg/mL (≈ 8.3 µM)
S. faecium CT-26
  MIC: 16 µg/mL (≈ 66.4 µM)
S. pneumoniae ATCC 6301
  MIC: 8 µg/mL (≈ 33.2 µM)
[1]
  MIC: 8 µg/mL (≈ 33.2 µM)

## N#Cc1ccc(B2OCc3cc(F)ccc32)cc1 [Compound 19, 4(5-Fluorobenzo[c][1,2]oxaborol-1(3H)-yl)benzonitrile]
In vitro
  CC50 at 7 day: 17.1 µM
S. faecalis ATCC 29212
  MIC: > 64 µg/mL
[2]
  CC50 at 72 hr: 0.27 µM
S. aureus ATCC 29213
  MIC: 8 µg/mL (≈ 33.7 µM)
S. faecium CT-26
  MIC: > 64 µg/mL
S. pneumoniae ATCC 6301
  MIC: 16 µg/mL (≈ 67.5 µM)
[1]
  MIC: 16 µg/mL (≈ 67.5 µM)

## N#Cc1cccc(B2OCc3cc(F)ccc32)c1 [Compound 20, 3-(5-Fluorobenzo[c][1,2]oxaborol-1(3H)-yl)benzonitrile]
In vitro
  CC50 at 7 day: 21 µM
S. faecalis ATCC 29212
  MIC: 64 µg/mL (≈ 270 µM)
[2]
  CC50 at 72 hr: 5.99 µM
17D strain YFV virus
  IC50: 1.62 µM
S. aureus ATCC 29213
  MIC: 1 µg/mL (≈ 4.22 µM)
S. faecium CT-26
  MIC: 64 µg/mL (≈ 270 µM)
S. pneumoniae ATCC 6301
  MIC: 8 µg/mL (≈ 33.7 µM)
[1]
  MIC: 16 µg/mL (≈ 67.5 µM)

## Fc1ccc2c(c1)COB2c1cccc(Cl)c1 [Compound 11, 1-(3-Chlorophenyl)-5-fluoro-1,3-dihydrobenzo[c][1,2]oxaborole]
In vitro
  CC50 at 7 day: 4.14 µM
S. faecalis ATCC 29212
  MIC: 32 µg/mL (≈ 130 µM)
[2]
  CC50 at 72 hr: 1.29 µM
17D strain YFV virus
  IC50: 0.65 µM
S. aureus ATCC 29213
  MIC: < 0.125 µg/mL
S. faecium CT-26
  MIC: 32 µg/mL (≈ 130 µM)
[3]
  CC50: 3.2 µM
S. pneumoniae ATCC 6301
  MIC: 8 µg/mL (≈ 32.5 µM)
HBV ayw1 strain
  IC50: 2.47 µM
[1]
  MIC: 1 µg/mL (≈ 4.06 µM)

## C[C@@H](O)[C@H]1C(=O)N2C(C(=O)O)=C(SCCN=CN)C[C@H]12 [Imipenem, reference compound]
S. faecalis ATCC 29212
  MIC: 1 µg/mL (≈ 3.34 µM)
S. aureus ATCC 29213
  MIC: 0.125 µg/mL (≈ 0.418 µM)
S. faecium CT-26
  MIC: 64 µg/mL (≈ 214 µM)
S. pneumoniae ATCC 6301
  MIC: 0.125 µg/mL (≈ 0.418 µM)
[1]
  MIC: 0.125 µg/mL (≈ 0.418 µM)

## CO/N=C(\C(=O)N[C@@H]1C(=O)N2C(C(=O)O)=C(CSc3nc(=O)c(=O)[nH]n3C)CS[C@H]12)c1csc(N)n1 [Ceftriaxone, reference compound]
S. faecalis ATCC 29212
  MIC: 64 µg/mL (≈ 115 µM)
S. aureus ATCC 29213
  MIC: 2 µg/mL (≈ 3.61 µM)
S. faecium CT-26
  MIC: 64 µg/mL (≈ 115 µM)
S. pneumoniae ATCC 6301
  MIC: 0.125 µg/mL (≈ 0.225 µM)
[1]
  MIC: 1 µg/mL (≈ 1.8 µM)

## Cc1onc(-c2ccccc2Cl)c1C(=O)N[C@@H]1C(=O)N2[C@@H]1SC(C)(C)[C@@H]2C(=O)O [Cloxacillin, reference compound]
S. faecalis ATCC 29212
  MIC: 16 µg/mL (≈ 36.7 µM)
S. aureus ATCC 29213
  MIC: 0.125 µg/mL (≈ 0.287 µM)
S. faecium CT-26
  MIC: 64 µg/mL (≈ 147 µM)
S. pneumoniae ATCC 6301
  MIC: 0.125 µg/mL (≈ 0.287 µM)
[1]
  MIC: 0.25 µg/mL (≈ 0.574 µM)

## Nc1ccn([C@@H]2CS[C@H](CO)O2)c(=O)n1 [lamivudine, reference compound]
[3]
  CC50: > 1 µM
HBV ayw1 strain
  IC50: 0.0093 µM

## CC1(C)S[C@@H]2[C@H](NC(=O)Cc3ccccc3)C(=O)N2[C@H]1C(=O)O [Pen G, reference compound]
S. faecalis ATCC 29212
  MIC S. faecalis ATCC 29212: 1 micrograms per ml
S. aureus ATCC 29213
  MIC S. aureus ATCC 29213: 0.5 micrograms per ml
S. faecium CT-26
  MIC S. faecium CT-26: 32 micrograms per ml
S. pneumoniae ATCC 6301
  MIC S. pneumoniae ATCC 6301: 0.125 micrograms per ml
[1]
  MIC S. epidermidis ATCC 12228: 16 micrograms per ml

## N#Cc1cccc(B2OCc3ccc(F)cc32)c1 [Compound 21, 3-(6-Fluorobenzo[c][1,2]oxaborol-1(3H)-yl)benzonitrile]
In vitro
  CC50 at 7 day: 15.8 µM
S. faecalis ATCC 29212
  MIC: 64 µg/mL (≈ 270 µM)
[2]
  CC50 at 72 hr: 0.69 µM
17D strain YFV virus
  IC50: 2.36 µM
S. aureus ATCC 29213
  MIC: 8 µg/mL (≈ 33.7 µM)
S. faecium CT-26
  MIC: 64 µg/mL (≈ 270 µM)
S. pneumoniae ATCC 6301
  MIC: 8 µg/mL (≈ 33.7 µM)
[1]
  MIC: 16 µg/mL (≈ 67.5 µM)

## Fc1ccc2c(c1)B(c1cccc(Cl)c1)OC2 [Compound 15, 1-(3-Chlorophenyl)-6-fluoro-1,3-dihydrobenzo[c][1,2]oxaborole]
In vitro
  CC50 at 7 day: 6.6 µM
S. faecalis ATCC 29212
  MIC: 16 µg/mL (≈ 64.9 µM)
[2]
  CC50 at 72 hr: 0.54 µM
17D strain YFV virus
  IC50: 1.19 µM
S. aureus ATCC 29213
  MIC: 0.5 µg/mL (≈ 2.03 µM)
S. faecium CT-26
  MIC: 8 µg/mL (≈ 32.5 µM)
S. pneumoniae ATCC 6301
  MIC: 4 µg/mL (≈ 16.2 µM)
[1]
  MIC: 2 µg/mL (≈ 8.11 µM)

## Clc1ccc(B2OCc3ccccc32)cc1 [Compound 17, 1-(4-Chlorophenyl)-1,3-dihydrobenzo[c][1,2]oxaborole]
In vitro
  CC50 at 7 day: 6.42 µM
S. faecalis ATCC 29212
  MIC: 16 µg/mL (≈ 70 µM)
[2]
  CC50 at 72 hr: 0.26 µM
17D strain YFV virus
  IC50: 1.56 µM
S. aureus ATCC 29213
  MIC: 2 µg/mL (≈ 8.75 µM)
S. faecium CT-26
  MIC: 16 µg/mL (≈ 70 µM)
S. pneumoniae ATCC 6301
  MIC: 4 µg/mL (≈ 17.5 µM)
[1]
  MIC: 2 µg/mL (≈ 8.75 µM)
